Laboratory results from patent publication US20070037253A1, “Methods and compositions for treatment of arthritis and cancer” (priority 2003, published 2007).
Entries after “also recorded” stand apart in the source; their conditions may differ. Where a SMILES comes first, the peptide text is derived from it.

What was measured:
[1] = target: collagenase I (MMP-1); assay: Collagenase activity assay, collagen thin film (collagen type II substrate); assay type: biochemical; conditions: collagen thin film method, FIG. 2; read-out: IC50 (mean±SD), collagenase I (MMP-1)
Protocol: Collagenase activity was assayed by collagen thin film method using collagen type II as substrate. IC50 values were graphically determined from the inhibition curves, constructed on the basis of the in vitro results of collagenase assays. Results are the mean±SD of 3 separate experiments done in triplicates. (•), P-NT.II; (□), PIP [59-67] dimer; (Δ), PIP [59-67} monomer; (∇), LY 315920.
Collagenase activity assay: Using collagen thin film as the substrate, a quantitative method was established to measure the enzymatic activity of the MMPs (principally collagenase). Collagen type II (Sigma) solution (4 μL, 3 mg/mL in 0.012 N HCl) was added to each well of 96-well plates and precipitated by slowly increasing the pH with 4 μL of H2O and 8 μL of 0.012 N NaOH. The plate was dried at 23° C. for 24 hr, washed with H2O, and dried again at 23° C., resulting in a thin film containing 12 μg of collagen that was tightly bound to the bottom of the wells. Enzymatic reactions of the collagenase I (with and without peptide inhibitors) against the collagen films were carried out in quadruplicate at 24° C. for 16 h. The digested portion of the film was washed away, while the undigested portion was fixed for 3 h with 0.1% Coomassie brilliant blue R in 10% acetic acid and 45% methanol, and the wells washed and dried.

[2] = system: MMP-9 gene transcript; assay: QRT-PCR relative mRNA expression in IL-1β-stimulated rabbit synovial fibroblasts; assay type: cell-based
Source text: (§1) FIG. 5 is a view of the effect of peptide on the relative expression of MMP and sPLA2 genes. QRT-PCR was used for assessing relative mRNA expression levels of IL-1β-stimulated rabbit synovial fibroblast cells in the presence and absence of the candidate lead peptide PIP [59-67] dimer. The amount of each mRNA was obtained by quantitative RT-PCR. The relative levels of gene expression were normalized to the housekeeping gene (GAPDH). […] Values are expressed as ±S.E.
(§2) RNA isolation of cultured FLSCs: FLSCs were grown to 80% confluence on 12-well culture dishes and starved in a serum-free medium with 5 μM PIP [59-67] dimer for 2 h. The cells were then stimulated with 5 ng/mL IL-1β (Recombinant human, Chemicon, USA.) for 24 h, washed with cold PBS and total RNA isolated from peptide-treated (n=3) and untreated (n=3) FLSCs using RNeasy® mini kit. The RNA samples were subsequently treated with RNase-free Dnase-I at room temperature for 20 min and stored at −80° C. until use. The quality and quantity of extracted RNA was determined by spectrophotometry (Bio-Rad, USA). All RNA samples used for QRT-PCR experiments were of highest purity with A260/A280 ratios of 1.9-2.1. The integrity and relative contamination with residual genomic DNA was assessed by 1% denaturing agarose gel electrophoresis.
(§3) Quantitative Real Time RT-PCR (LightCycler): Quantitative fluorescence-based real-time PCR was carried out according to the manufacturer's instructions using the LightCycler system with LightCycler FastStart DNA Master^PLUS SYBR Green I kit (Roche Diagnostics, Germany) as an independent method for assessing relative gene expression. Reverse Transcription (RT) of RNA and QRT-PCR were performed as follows: single stranded cDNA was generated from 3 μg of total RNA, 200 μM nucleotides, 500 units Superscript II reverse transcriptase (Invitrogen) and 1.5 μM oligo(dT)15 primers in 50 μL reactions. Reverse transcription was stopped after 1 hr by heating to 95° C. for 5 min. The primers were designed by Primer3 software: http://bioinformatics.weizmann.ac.il/cgi-bin/primer/primer3.cgi and subsequently checked for specificity using BLAST: http://www.ncbi.nlm.nih.gov/genome/seq/HsBlast.htmL. All primers and probes were synthesized by 1st BASE Pvt. Ltd., Singapore. The expression of GAPDH was used as an internal calibrator for equal RNA loading and to normalize relative expression data for all other genes analyzed. The copy ratio of each analyzed cDNA was determined as the mean of 3 experiments. The real-time quantitative RT-PCR data were quantified using relative quantification (2^−ΔΔCT) method as described [Livak, K. J, and Schmittgen, T. D. (2001) Analysis of relative gene expression data using real-time quantitative PCR and the 2(-Delta Delta C(T)) method.

[3] = system: sPLA2 gene transcript; assay: as above; assay type: cell-based
Source text: as §1, §2, §3

[4] = system: TIMP-1 gene transcript; assay: as above; assay type: cell-based; conditions: 5 μM peptide, IL-1β-induced
Source text: as §1, §2, §3

[5] = system: TIMP-2 gene; assay: as above; assay type: cell-based; conditions: co-treatment with peptide, IL-1β-induced, normalized to GAPDH
Source text: as §1, §2, §3

[6] = system: MMP-2 gene transcript; assay: as above; assay type: cell-based
Source text: as §1, §2, §3

[7] = system: MMP-1 gene transcript; assay: as above; assay type: cell-based
Source text: as §1, §2, §3

[8] = 5 μM peptide, IL-1β-induced, normalized to GAPDH
[9] = IL-1β-stimulated rabbit synovial fibroblasts in culture

CC[C@H](C)[C@H](NC(=O)[C@H](CC(=O)O)NC(=O)[C@@H](N)C(C)C)C(=O)N[C@@H](Cc1c[nH]cn1)C(=O)N[C@H](C(=O)N[C@@H](Cc1c[nH]c2ccccc12)C(=O)N[C@@H](CC(=O)O)C(=O)NCC(=O)N[C@H](C(=O)N[C@H](C(=O)N[C@@H](CC(=O)O)C(=O)N[C@H](C(=O)N[C@@H](Cc1c[nH]cn1)C(=O)N[C@H](C(=O)N[C@@H](Cc1c[nH]c2ccccc12)C(=O)N[C@@H](CC(=O)O)C(=O)NCC(=O)N[C@H](C(=O)O)C(C)C)C(C)C)[C@@H](C)CC)C(C)C)C(C)C)C(C)C [PIP [59-67] dimer] (H-VDIHVWDGVVDIHVWDGV-OH; N-terminus and C-terminus assumed)
IC50 [1]: 7.75 ± 1.11 µM | MMP-9 mRNA expression level [2, 8]: significantly inhibited; also recorded: significantly suppressed | decrease of MMP-9 mRNA expression [2, 9]: > 1 fold | sPLA2 mRNA expression level [3, 8]: significantly inhibited; also recorded: significantly suppressed | decrease of sPLA2 mRNA expression [3, 9]: > 1 fold | TIMP-1 mRNA expression level [4]: significantly suppressed | TIMP-2 gene expression [5]: significantly inhibited | MMP-2 mRNA expression level [6, 8]: significantly inhibited; also recorded: significantly suppressed | decrease of MMP-2 mRNA expression [6, 9]: > 1 fold | MMP-1 mRNA expression level [7, 8]: significantly inhibited; also recorded: significantly suppressed | decrease of MMP-1 mRNA expression [7, 9]: > 1 fold
